According to patent publication US6960597B2, “Aza-bridged-bicyclic amino acid derivatives as α4 integrin antagonists” (Orth-McNeil Pharmaceutical, Inc., priority 2000, dated 2005):
Read-outs that look alike come from different tables or passages of the source.

Assays:
α4β1 integrin receptor = molecular target: T1, α4β1 integrin receptor (Homo sapiens, UniProt P05556+P13612); test: Ramos Cell Adhesion Assay (α4β1 Mediated Adhesion/VCAM-1); format: cell-based
T1 construct: Ramos Cell Adhesion Assay (α4β1 Mediated Adhesion/VCAM-1); endogenous in cells; host or cells: Ramos cells
Procedure: Ramos Cell Adhesion Assay (α4β1 Mediated Adhesion/VCAM-1)
(§1) Immulon 96 well plates (Dynex) were coated with 100 μL recombinant hVCAM-1 at 4.0 μg/mL in 0.05 M NaCO3 buffer pH 9.0 overnight at 4° C. (R&D Systems). Plates were washed 3 times in PBS with 1% BSA and blocked for 1 h @ room temperature in this buffer. PBS was removed and compounds to be tested (50 μL) were added at 2× concentration. Ramos cells, (50 μL at 2×10^6/mL) labeled with 5 μM Calcein AM (Molecular Probes) for 1 h at 37° C., were added to each well and allowed to adhere for 1 h at room temperature. Plates were washed 3× in PBS+1% BSA and cells were lysed for 15 minutes in 100 μL of 1 M Tris pH 8.0 with 1% SDS. The plate was read at 485 nm excitation and 530 nm emission.

human α4β7 = molecular target: T2, human α4β7 (Homo sapiens, UniProt P13612+P26010); test: α4β7-K562 Cell Adhesion Assay (α4β7 Mediated Adhesion/VCAM-1); format: cell-based
T2 construct: expressed in transfected cells
T2 sequence (P13612 34-1032): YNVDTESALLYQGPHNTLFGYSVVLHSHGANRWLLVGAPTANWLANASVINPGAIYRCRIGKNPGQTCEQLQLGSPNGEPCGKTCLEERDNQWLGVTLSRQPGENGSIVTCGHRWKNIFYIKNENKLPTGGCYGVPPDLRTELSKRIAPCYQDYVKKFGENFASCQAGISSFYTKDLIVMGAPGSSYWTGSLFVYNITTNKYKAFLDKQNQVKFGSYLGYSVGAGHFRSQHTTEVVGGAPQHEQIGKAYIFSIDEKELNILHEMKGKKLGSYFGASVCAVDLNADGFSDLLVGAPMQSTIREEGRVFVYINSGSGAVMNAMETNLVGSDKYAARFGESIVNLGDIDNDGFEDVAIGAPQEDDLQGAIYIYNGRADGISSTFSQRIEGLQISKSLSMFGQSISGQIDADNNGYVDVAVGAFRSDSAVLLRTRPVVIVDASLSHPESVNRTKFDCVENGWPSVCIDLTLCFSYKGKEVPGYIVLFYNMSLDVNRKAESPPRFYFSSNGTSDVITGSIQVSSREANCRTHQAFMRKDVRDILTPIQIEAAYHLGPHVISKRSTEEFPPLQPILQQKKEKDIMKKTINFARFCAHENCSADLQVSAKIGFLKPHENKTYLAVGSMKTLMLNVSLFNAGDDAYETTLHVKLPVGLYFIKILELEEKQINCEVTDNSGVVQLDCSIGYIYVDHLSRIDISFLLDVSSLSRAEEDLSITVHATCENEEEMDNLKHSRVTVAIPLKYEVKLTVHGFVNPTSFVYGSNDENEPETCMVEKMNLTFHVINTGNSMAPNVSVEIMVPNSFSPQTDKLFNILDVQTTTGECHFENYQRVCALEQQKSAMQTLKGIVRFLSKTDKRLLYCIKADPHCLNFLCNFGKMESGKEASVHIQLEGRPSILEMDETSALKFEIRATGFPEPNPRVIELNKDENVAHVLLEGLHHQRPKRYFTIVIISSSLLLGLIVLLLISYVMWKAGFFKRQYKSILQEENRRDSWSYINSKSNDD
T2 sequence (P26010 20-798): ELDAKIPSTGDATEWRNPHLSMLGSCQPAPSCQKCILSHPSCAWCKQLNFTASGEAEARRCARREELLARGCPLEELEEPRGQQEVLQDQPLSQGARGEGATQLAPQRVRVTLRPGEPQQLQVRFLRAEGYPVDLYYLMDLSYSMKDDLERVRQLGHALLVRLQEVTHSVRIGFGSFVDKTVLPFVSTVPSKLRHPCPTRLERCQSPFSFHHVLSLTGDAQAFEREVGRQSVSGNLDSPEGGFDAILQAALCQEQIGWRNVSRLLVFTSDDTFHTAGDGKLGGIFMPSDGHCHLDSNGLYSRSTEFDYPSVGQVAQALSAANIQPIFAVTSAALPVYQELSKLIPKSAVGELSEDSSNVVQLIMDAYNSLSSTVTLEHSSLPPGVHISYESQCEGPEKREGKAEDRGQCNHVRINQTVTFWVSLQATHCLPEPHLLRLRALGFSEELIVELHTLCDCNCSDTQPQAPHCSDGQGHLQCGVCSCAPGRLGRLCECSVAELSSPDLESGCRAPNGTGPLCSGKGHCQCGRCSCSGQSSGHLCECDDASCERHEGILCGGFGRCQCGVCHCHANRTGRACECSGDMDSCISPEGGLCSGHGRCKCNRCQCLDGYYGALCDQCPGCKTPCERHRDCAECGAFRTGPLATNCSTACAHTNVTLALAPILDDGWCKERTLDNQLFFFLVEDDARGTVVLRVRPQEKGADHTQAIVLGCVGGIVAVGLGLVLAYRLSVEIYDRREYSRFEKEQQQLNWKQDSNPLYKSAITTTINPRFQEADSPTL
Procedure: α4β7-K562 Cell Adhesion Assay (α4β7 Mediated Adhesion/VCAM-1)
as §1, with “A stable cell line of K562 cells expressing human α4β7,” for “Ramos cells,”

[1] = Table III, read-out: Inhibition of Binding of Ramos Cells to Immobilized VCAM-1 IC50
[2] = Table IV, read-out: Inhibition of Binding of K562 Cells to Immobilized VCAM-1 IC50
[3] = Table I, racemic mixtures and resolved (S,S) and (R,S) diastereomers, read-out: Antagonist IC50 Activity α4β1
[4] = Table I, racemic mixtures and resolved (S,S) and (R,S) diastereomers, read-out: Antagonist IC50 Activity α4β7

T1 sequence (P05556 21-798, one chain of several): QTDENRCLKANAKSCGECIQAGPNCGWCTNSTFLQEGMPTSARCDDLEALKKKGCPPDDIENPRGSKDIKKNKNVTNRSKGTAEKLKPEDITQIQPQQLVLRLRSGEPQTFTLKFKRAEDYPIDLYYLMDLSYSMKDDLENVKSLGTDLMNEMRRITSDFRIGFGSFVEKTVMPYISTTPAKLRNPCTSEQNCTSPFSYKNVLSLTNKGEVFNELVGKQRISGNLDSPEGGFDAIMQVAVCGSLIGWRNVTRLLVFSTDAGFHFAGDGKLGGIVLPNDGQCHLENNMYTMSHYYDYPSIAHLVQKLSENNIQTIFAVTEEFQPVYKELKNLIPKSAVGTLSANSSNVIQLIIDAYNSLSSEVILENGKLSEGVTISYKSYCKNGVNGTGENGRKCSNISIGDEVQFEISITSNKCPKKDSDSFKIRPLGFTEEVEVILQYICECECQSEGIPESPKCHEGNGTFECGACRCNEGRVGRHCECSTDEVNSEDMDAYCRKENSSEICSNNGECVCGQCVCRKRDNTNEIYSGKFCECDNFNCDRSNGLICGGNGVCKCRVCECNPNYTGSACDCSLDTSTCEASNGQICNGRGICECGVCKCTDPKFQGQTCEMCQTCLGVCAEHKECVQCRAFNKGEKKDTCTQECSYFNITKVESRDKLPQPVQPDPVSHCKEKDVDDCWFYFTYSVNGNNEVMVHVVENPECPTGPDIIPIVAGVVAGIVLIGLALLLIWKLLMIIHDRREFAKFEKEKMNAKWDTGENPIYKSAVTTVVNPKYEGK

| IC50 (α4β1 integrin receptor; [1]) | IC50 (α4β1 integrin receptor; [3]) | IC50 (human α4β7; [4]) | SMILES | other results |
| --- | --- | --- | --- | --- |
| 45 nM |  |  | Cc1ccc(S(=O)(=O)N2C3CCC(CC3)C2C(=O)N[C@@H](Cc2ccc(NC(=O)c3c(Cl)cccc3Cl)cc2)C(=O)O)cc1 (mixture of isomers) [Cpd 1, 4-[(2,6-dichlorobenzoyl)amino]-N-[[2-[(4-methylphenyl)sulfonyl]-2-azabicyclo[2.2.2]oct-3-yl]carbonyl]-L-phenylalanine] | IC50 (human α4β7; [2]): 142 nM |
| 25 nM | 20 nM | 283 nM | O=C(Nc1ccc(C[C@H](NC(=O)C2C3CCC(CC3)N2S(=O)(=O)c2ccccc2)C(=O)O)cc1)c1c(Cl)cccc1Cl (mixture of isomers) [Cpd 6, 4-[(2,6-dichlorobenzoyl)amino]-N-[[2-(phenylsulfonyl)-2-azabicyclo[2.2.2]oct-3-yl]carbonyl]-L-phenylalanine] |  |
| 124 nM | 124 nM | 210 nM | COc1cccc(OC)c1-c1ccc(C[C@H](NC(=O)C2C3CCC(CC3)N2S(=O)(=O)c2ccc(C)cc2)C(=O)O)cc1 (mixture of isomers) [Cpd 18, 4-(2,6-dimethoxyphenyl)-N-[[2-[(4-methylphenyl)sulfonyl]-2-azabicyclo[2.2.2]oct-3-yl]carbonyl]-L-phenylalanine] |  |
| 74 nM | 74 nM | 83 nM | O=C(N[C@@H](Cc1ccc(N2C(=O)c3ccccc3C2=O)cc1)C(=O)O)C1C2CCC(CC2)N1S(=O)(=O)c1ccccc1 (mixture of isomers) [Cpd 47, 4-(1,3-dihydro-1,3-dioxo-2H-isoindol-2-yl)-N-[[2-(phenylsulfonyl)-2-azabicyclo[2.2.2]oct-3-yl]carbonyl]-L-phenylalanine] |  |
|  |  |  | CN(C)C(=O)Oc1ccc(C[C@H](NC(=O)C2C3CCC(CC3)N2S(=O)(=O)c2ccccc2)C(=O)O)cc1 (mixture of isomers) [Cpd 52, O-[(dimethylamino)carbonyl]-N-[[2-(phenylsulfonyl)-2-azabicyclo[2.2.2]oct-3-yl]carbonyl]-L-tyrosine] | IC50 (α4β1 integrin receptor; Antagonist IC50 Activity α4β1, Table I, racemic mixtures and resolved (S,S) and (R,S) diastereomers): 124 nM; IC50 (α4β1 integrin receptor; Inhibition of Binding of Ramos Cells to Immobilized VCAM-1 IC50, Table III): 124 nM; IC50 (human α4β7): 998 nM |
| 67 nM | 179 nM | 871 nM | CC(C)(C)OC(=O)N1CCC(C(=O)Nc2ccc(C[C@H](NC(=O)C3C4CCC(CC4)N3S(=O)(=O)c3ccccc3)C(=O)O)cc2)CC1 (mixture of isomers) [Cpd 53, 4-[[[1-[(1,1-dimethylethoxy)carbonyl]-4-piperidinyl]carbonyl]amino]-N-[[2-(phenylsulfonyl)-2-azabicyclo[2.2.2]oct-3-yl]carbonyl]-L-phenylalanine] |  |
| 7 nM | 9 nM | 30 nM | O=C(Nc1ccc(C[C@H](NC(=O)C2C3CCC(CC3)N2S(=O)(=O)c2cccs2)C(=O)O)cc1)c1c(Cl)cncc1Cl (mixture of isomers) [Cpd 71, 4-[[(3,5-dichloro-4-pyridinyl)carbonyl]amino]-N-[[2-(2-thienylsulfonyl)-2-azabicyclo[2.2.2]oct-3-yl]carbonyl]-L-phenylalanine] |  |
| 51 nM |  |  | Cc1ccc(S(=O)(=O)N2C3CCC(CC3)C2C(=O)N[C@@H](Cc2ccc(NC(=O)c3c(Cl)cc(Cl)cc3Cl)cc2)C(=O)O)cc1 (stereo partly drawn) [Cpd 2, 4-[(2,4,6-trichlorobenzoyl)amino]-N-[[2-[(4-methylphenyl)sulfonyl]-2-azabicyclo[2.2.2]oct-3-yl]carbonyl]-L-phenylalanine] | IC50 (human α4β7; [2]): 98 nM |
| 50 nM |  |  | COc1cccc(OC)c1C(=O)Nc1ccc(C[C@H](NC(=O)C2C3CCC(CC3)N2S(=O)(=O)c2ccc(C)cc2)C(=O)O)cc1 (stereo partly drawn) [Cpd 3, 4-[(2,6-dimethoxybenzoyl)amino]-N-[[2-[(4-methylphenyl)sulfonyl]-2-azabicyclo[2.2.2]oct-3-yl]carbonyl]-L-phenylalanine] | IC50 (human α4β7; [2]): 1940 nM |
| 81 nM | 81 nM | 62 nM | O=C(Nc1ccc(C[C@H](NC(=O)[C@@H]2C3CCC(C3)N2S(=O)(=O)c2ccccc2)C(=O)O)cc1)c1c(F)cccc1F (stereo partly drawn) [Cpd 5a, 4-[(2,6-difluorobenzoyl)amino]-N-[[(3S)-2-(phenylsulfonyl)-2-azabicyclo[2.2.1]hept-3-yl]carbonyl]-L-phenylalanine] |  |
| 394 nM | 394 nM | 3380 nM | O=C(Nc1ccc(C[C@H](NC(=O)[C@H]2C3CCC(C3)N2S(=O)(=O)c2ccccc2)C(=O)O)cc1)c1c(F)cccc1F (stereo partly drawn) [Cpd 5b, 4-[(2,6-difluorobenzoyl)amino]-N-[[(3R)-2-(phenylsulfonyl)-2-azabicyclo[2.2.1]hept-3-yl]carbonyl]-L-phenylalanine] |  |
| 21 nM | 23 nM | 217 nM | O=C(Nc1ccc(C[C@H](NC(=O)[C@@H]2C3CCC(CC3)N2S(=O)(=O)c2ccccc2)C(=O)O)cc1)c1c(Cl)cccc1Cl [Cpd 6a, 4-[(2,6-dichlorobenzoyl)amino]-N-[[(3S)-2-(phenylsulfonyl)-2-azabicyclo[2.2.2]oct-3-yl]carbonyl]-L-phenylalanine] |  |
| 309 nM |  |  | O=C(Nc1ccc(C[C@H](NC(=O)C2C3CCC(CC3)N2S(=O)(=O)c2ccccc2)C(=O)O)cc1)c1c(F)c(F)cc(F)c1F (stereo partly drawn) [Cpd 44, 4-[(2,3,5,6-tetrafluorobenzoyl)amino]-N-[[2-(phenylsulfonyl)-2-azabicyclo[2.2.2]oct-3-yl]carbonyl]-L-phenylalanine] |  |
| 9 nM |  |  | O=C(Nc1ccc(C[C@H](NC(=O)[C@@H]2C3CCC(CC3)N2S(=O)(=O)c2ccccc2)C(=O)O)cc1)c1c(Cl)cncc1Cl [Cpd 60, 4-[[(3,5-dichloro-4-pyridinyl)carbonyl]amino]-N-[[(3S)-2-(phenylsulfonyl)-2-azabicyclo[2.2.2]oct-3-yl]carbonyl]-L-phenylalanine] |  |
| 56 nM |  |  | CN(C)C(=O)Nc1ccc(C[C@H](NC(=O)C2C3CCC(CC3)N2S(=O)(=O)c2ccccc2)C(=O)O)cc1 (stereo partly drawn) [Cpd 61, 4-[[(dimethylamino)carbonyl]amino]-N-[[2-(phenylsulfonyl)-2-azabicyclo[2.2.2]oct-3-yl]carbonyl]-L-phenylalanine] |  |
